# Patent US9060515B2, “Heterocyclic urea compounds” (BIOTA EUROPE LTD, priority 2011, dated 2015)
# Columns and labels:
# S. pyogenes (ATCC 51339) = experiment: Antibacterial susceptibility testing (MIC, broth microdilution or agar dilution), S. pyogenes; assay type: cell-based; settings: Streptococcus pyogenes, ATCC51339; read-out: S. pyogenes (ATCC 51339) minimal inhibitory concentration (MIC)
# Procedure: (§1) Compounds of the invention were tested for antimicrobial activity by susceptibility testing in liquid or on solid media. MICs for compounds against each strain were determined by the broth microdilution or agar dilution method according to the guidelines of the Clinical Laboratories and Standards Institute, formerly the National Committee for Clinical Laboratory Standards (Clinical Laboratories and Standards Institute. Methods for Dilution Antimicrobial Susceptibility Tests for Bacteria That Grow Aerobically; Approved Standard—Seventh Edition. Document M7-A7. CLSI, Wayne, Pa., 2006; Clinical Laboratories and Standards Institute. The Gram positive bacterial strains tested include S. aureus (Staphylococcus aureus (Isolate ID ATCC 29213)), E. faecalis (Enterococcus faecalis (Isolate ID ATCC 29212)) and S. pyogenes (Streptococcus pyogenes (Isolate ID ATCC 51339)). The Gram negative bacterial strains tested include H. influenzae (Haemophilus influenzae (Isolate ID ATCC 49247)).
# S. aureus (ATCC 29213) = experiment: Antibacterial susceptibility testing (MIC, broth microdilution or agar dilution), S. aureus; assay type: cell-based; settings: Staphylococcus aureus, ATCC29213; read-out: S. aureus (ATCC 29213) minimal inhibitory concentration (MIC)
# Procedure: as §1
Compound,MIC (S. pyogenes (ATCC 51339)),MIC (S. aureus (ATCC 29213))
"CCNC(=O)Nc1cc(Nc2ccccc2OC)c(C(=O)Nc2cccnc2)cn1 [Compound 109, 6-(3-ethylureido)-4-(2-methoxyphenylamino)-N-(pyridin-3-yl)nicotinamide]",≤ 1 µg/mL,2 µg/mL
"CCNC(=O)Nc1cc(Nc2ccccc2)c(C(=O)Nc2cnn(C)c2)cn1 [Compound 65, 6-(3-ethylureido)-N-(1-methyl-1H-pyrazol-4-yl)-4-(phenylamino)nicotinamide]",≤ 1 µg/mL,2 µg/mL
"CCNC(=O)Nc1cc(Nc2ccccc2)c(C(=O)Nc2cncnc2)cn1 [Compound 60, 6-(3-ethylureido)-4-(phenylamino)-N-(pyrimidin-5-yl)nicotinamide]",≤ 1 µg/mL,4 µg/mL
"CCNC(=O)Nc1cc(Nc2ccccc2)c(C(=O)Nc2ccc(C(F)(F)F)cc2)cn1 [Compound 47, 6-(3-ethylureido)-4-(phenylamino)-N-(4-(trifluoromethyl)phenyl)nicotinamide]",32 µg/mL,4 µg/mL
"CCNC(=O)Nc1cc(Nc2ccc(CC(=O)OCC)cc2)c(C(=O)Nc2cccnc2)cn1 [Compound 110, ethyl 2-(4-(2-(3-ethylureido)-5-(pyridin-3-ylcarbamoyl)pyridin-4-ylamino)phenyl)acetate]",4 µg/mL,4 µg/mL
"CCNC(=O)Nc1cc(Nc2ccccc2)c(C(=O)Nc2ccnn2C)cn1 [Compound 10, 6-(3-Ethylureido)-N-(1-methyl-1H-pyrazol-5-yl)-4-(phenylamino)nicotinamide]",2 µg/mL,16 µg/mL
"CCNC(=O)Nc1cc(Nc2ccc(C(=O)OC)cc2)c(C(=O)Nc2cccnc2)cn1 [Compound 96, methyl 4-(2-(3-ethylureido)-5-(pyridin-3-ylcarbamoyl)pyridin-4-ylamino)benzoate]",≤ 1 µg/mL,≤ 1 µg/mL
"CCNC(=O)Nc1cc(Nc2ccccc2)c(C(=O)Nc2cccc(F)c2)cn1 [Compound 56, 6-(3-ethylureido)-N-(3-fluorophenyl)-4-(phenylamino)nicotinamide]",2 µg/mL,≤ 1 µg/mL
"CCNC(=O)Nc1cc(Nc2ccc(CCC(=O)OCC)cc2)c(C(=O)Nc2cccnc2)cn1 [Compound 131, ethyl 3-(4-(2-(3-ethylureido)-5-(pyridin-3-ylcarbamoyl)pyridin-4-ylamino)phenyl)propanoate]",4 µg/mL,8 µg/mL
"CCNC(=O)Nc1cc(Nc2ccccc2)c(C(=O)NCc2ccccn2)cn1 [Compound 52, 6-(3-ethylureido)-4-(phenylamino)-N-(pyridin-2-ylmethyl)nicotinamide]",8 µg/mL,32 µg/mL
"CCNC(=O)Nc1cc(Nc2ccn(C)n2)c(C(=O)Nc2cccnc2)cn1 [Compound 116, 6-(3-ethylureido)-4-(1-methyl-1H-pyrazol-3-ylamino)-N-(pyridin-3-yl)nicotinamide]",≤ 1 µg/mL,4 µg/mL
"CCNC(=O)Nc1cc(Nc2ccccc2)c(C(=O)Nc2cncc(F)c2)cn1 [Compound 85, 6-(3-ethylureido)-N-(5-fluoropyridin-3-yl)-4-(phenylamino)nicotinamide]",≤ 1 µg/mL,≤ 1 µg/mL
"CCNC(=O)Nc1cc(Nc2ccccc2)c(C(=O)NCc2ccncc2)cn1 [Compound 51, 6-(3-ethylureido)-4-(phenylamino)-N-(pyridin-4-ylmethyl)nicotinamide]",2 µg/mL,32 µg/mL
"CCNC(=O)Nc1cc(Nc2ccccc2)c(C(=O)Nc2ccc(Cl)cc2)cn1 [Compound 34, N-(4-chlorophenyl)-6-(3-ethylureido)-4-(phenylamino)nicotinamide]",32 µg/mL,4 µg/mL
"CCNC(=O)Nc1cc(Nc2ccc(Cl)cc2)c(C(=O)Nc2cccnc2)cn1 [Compound 106, 4-(4-chlorophenylamino)-6-(3-ethylureido)-N-(pyridin-3-yl)nicotinamide]",≤ 1 µg/mL,≤ 1 µg/mL
"CCNC(=O)Nc1cc(Nc2ccccc2)c(C(=O)Nc2ccc(C#N)nc2)cn1 [Compound 104, N-(6-cyanopyridin-3-yl)-6-(3-ethylureido)-4-(phenylamino)nicotinamide]",≤ 1 µg/mL,2 µg/mL
"CCNC(=O)Nc1cc(Nc2ccccc2)c(C(=O)Nc2cc(C)cc(F)c2)cn1 [Compound 93, 6-(3-ethylureido)-N-(3-fluoro-5-methylphenyl)-4-(phenylamino)nicotinamide]",2 µg/mL,≤ 1 µg/mL
"CCNC(=O)Nc1cc(Nc2ccccc2)c(C(=O)Nc2ccc(F)c(F)c2)cn1 [Compound 69, N-(3,4-difluorophenyl)-6-(3-ethylureido)-4-(phenylamino)nicotinamide]",4 µg/mL,≤ 1 µg/mL
"CCNC(=O)Nc1cc(Nc2ccccc2)c(C(=O)Nc2cc(C(=O)OC)n(C)c2)cn1 [Compound 86, methyl 4-(6-(3-ethylureido)-4-(phenylamino)nicotinamido)-1-methyl-1H-pyrrole-2-carboxylate]",≤ 1 µg/mL,≤ 1 µg/mL

Compound,MIC (S. pyogenes (ATCC 51339)),MIC (S. aureus (ATCC 29213))
"CCNC(=O)Nc1cc(Nc2ccccc2)c(C(=O)Nc2ccc(CCC(=O)NC)cc2)cn1 [Compound 120, 6-(3-ethylureido)-N-(4-(3-(methylamino)-3-oxopropyl)phenyl)-4-(phenylamino)nicotinamide]",≤ 1 µg/mL,2 µg/mL
"CCNC(=O)Nc1cc(Nc2ccccc2)c(C(=O)Nc2cccc(OC)c2)cn1 [Compound 32, 6-(3-ethylureido)-N-(3-methoxyphenyl)-4-(phenylamino)nicotinamide]",8 µg/mL,4 µg/mL
"CCNC(=O)Nc1cc(Nc2ccccc2)c(C(=O)Nc2ccc(N3CCC(O)CC3)nc2)cn1 [Compound 100, 6-(3-ethylureido)-N-(6-(4-hydroxypiperidin-1-yl)pyridin-3-yl)-4-(phenylamino)nicotinamide]",≤ 1 µg/mL,2 µg/mL
"CCNC(=O)Nc1cc(Nc2ccccc2)c(C(=O)Nc2ccc(N(C)C)nc2)cn1 [Compound 98, N-(6-(dimethylamino)pyridin-3-yl)-6-(3-ethylureido)-4-(phenylamino)nicotinamide]",≤ 1 µg/mL,≤ 1 µg/mL
"CCNC(=O)Nc1cc(Nc2cccc(C(=O)OC)c2)c(C(=O)Nc2cccnc2)cn1 [Compound 97, methyl 3-(2-(3-ethylureido)-5-(pyridin-3-ylcarbamoyl)pyridin-4-ylamino)benzoate]",32 µg/mL,2 µg/mL
CCNC(=O)Nc1cc(Nc2ccccc2)c(C(=O)Nc2ccc(Oc3ccc(F)cc3)nc2)cn1 [Compound 82],8 µg/mL,2 µg/mL
"CCNC(=O)Nc1cc(Nc2ccccc2)c(C(=O)Nc2ccc(F)cc2)cn1 [Compound 55, 6-(3-ethylureido)-N-(4-fluorophenyl)-4-(phenylamino)nicotinamide]",4 µg/mL,≤ 1 µg/mL
"CCNC(=O)Nc1cc(Nc2c(C)noc2C)c(C(=O)Nc2cccnc2)cn1 [Compound 115, 4-(3,5-dimethylisoxazol-4-ylamino)-6-(3-ethylureido)-N-(pyridin-3-yl)nicotinamide]",8 µg/mL,32 µg/mL
"CCNC(=O)Nc1cc(Nc2cccc(Cl)c2)c(C(=O)Nc2cccnc2)cn1 [Compound 107, 4-(3-chlorophenylamino)-6-(3-ethylureido)-N-(pyridin-3-yl)nicotinamide]",2 µg/mL,≤ 1 µg/mL
"CCNC(=O)Nc1cc(Nc2ccccc2)c(C(=O)Nc2cnc3c(c2)ncn3C)cn1 [Compound 88, 6-(3-ethylureido)-N-(3-methyl-3H-imidazo[4,5-b]pyridin-6-yl)-4-(phenylamino)nicotinamide]",≤ 1 µg/mL,2 µg/mL
"CCNC(=O)Nc1cc(Nc2ccc(OC)cc2)c(C(=O)Nc2cccnc2)cn1 [Compound 14, 6-(3-Ethylureido)-4-(4-methaxyphenylamino)-N-(pyridin-3-yl)nicotinamide]",2 µg/mL,4 µg/mL
"CCNC(=O)Nc1cc(Nc2ccccc2)c(C(=O)Nc2ccc(C)cc2)cn1 [Compound 46, 6-(3-ethylureido)-4-(phenylamino)-N-p-tolylnicotinamide]",4 µg/mL,2 µg/mL
"CCNC(=O)Nc1cc(Nc2ccccc2)c(C(=O)Nc2ccc(=O)n(C)c2)cn1 [Compound 99, 6-(3-ethylureido)-N-(1-methyl-6-oxo-1,6-dihydropyridin-3-yl)-4-(phenylamino)nicotinamide]",≤ 1 µg/mL,16 µg/mL
"CCNC(=O)Nc1cc(Nc2ccccc2)c(C(=O)Nc2cncc(C(=O)OC)c2)cn1 [Compound 89, methyl 5-(6-(3-ethylureido)-4-(phenylamino)nicotinamido)nicotinate]",8 µg/mL,≤ 1 µg/mL
"CCNC(=O)Nc1cc(Nc2cnn(C)c2)c(C(=O)Nc2cccnc2)cn1 [Compound 113, 6-(3-ethylureido)-4-(1-methyl-1H-pyrazol-4-ylamino)-N-(pyridin-3-yl)nicotinamide]",4 µg/mL,32 µg/mL
CCNC(=O)Nc1cc(Nc2ccccc2)c(C(=O)Nc2ccc(CC(C)(C)C(=O)OC)cc2)cn1 [Compound 129],≤ 1 µg/mL,2 µg/mL
"CCNC(=O)Nc1cc(Nc2ccccc2)c(C(=O)Nc2cncc(OC)c2)cn1 [Compound 79, 6-(3-ethylureido)-N-(5-methoxypyridin-3-yl)-4-(phenylamino)nicotinamide]",≤ 1 µg/mL,≤ 1 µg/mL
"CCNC(=O)Nc1cc(Nc2ccccc2)c(C(N)=O)cn1 [Compound 61, 6-(3-Ethylureido)-4-(phenylamino)nicotinamide]",16 µg/mL,32 µg/mL
